14 molecules from ChEMBL document CHEMBL1130993, “1,2-disubstituted cyclohexane derived tripeptide aldehydes as novel selective thrombin inhibitors” (Bioorg Med Chem Lett, 1998) can be followed below.

A value given as a limit tells only on which side of the number the result lay.

A short description of assay [1]: Compound was evaluated for IC50 ratio between human t-PA and thrombin.
A short description of assay [2]: Compound was evaluated for IC50 ratio between human plasmin and thrombin.
Assay [3] concerns the target T1, Prothrombin (Homo sapiens, UniProt P00734). Nature of the assay: Compound was evaluated for percent inhibition of thrombin using the synthetic substrate chromozym TH at 100 uM.
Assay [4] has as its target T1, Prothrombin. Description: Compound was evaluated for the inhibition of thrombin using the synthetic substrate chromozym TH.

On to `CN(CCc1ccccc1)C(=O)[C@@H]1CCCC[C@@H]1C(=O)N[C@@H](C=O)CCCN=C(N)N`, for which the values for the Selectivity in assay [1] and in assay [2] were 308 and 67, respectively. For the same molecule, the inhibition at Prothrombin [3] worked out at 100%. This molecule also displayed an IC50 at Prothrombin [4] of 12 µM.

On to `CN(Cc1ccccc1)C(=O)[C@H]1CCCC[C@@H]1C(=O)N[C@@H](C=O)CCCN=C(N)N`, for which, at Prothrombin [3], the inhibition is 27%.

As to `CNC(Cc1ccccc1)C(=O)N[C@@H]1CCCC[C@@H]1C(=O)N[C@@H](C=O)CCCN=C(N)N` (stereo partly drawn), at Prothrombin [3], the inhibition came out at 1%.

As to `CNC(Cc1ccccc1)C(=O)N[C@@H]1CCCC[C@H]1C(=O)N[C@@H](C=O)CCCN=C(N)N` (stereo partly drawn), the figures for the Selectivity in assay [1] and in assay [2] were 1000 and 38, respectively. This molecule showed an inhibition on Prothrombin [3] of 100%. The same molecule returned a half-maximal inhibitory concentration (IC50) against Prothrombin [4] of 4 µM.

`CN(Cc1ccccc1)C(=O)[C@@H]1CCCC[C@H]1C(=O)N[C@@H](C=O)CCCN=C(N)N` returned an inhibition against Prothrombin [3] of 8%.

`CN(CCc1ccccc1)C(=O)[C@@H]1CCCC[C@H]1C(=O)N[C@@H](C=O)CCCN=C(N)N` registered an inhibition at Prothrombin [3] of 14%.

Take `CNC(Cc1ccccc1)C(=O)N[C@H]1CCCC[C@@H]1C(=O)N[C@@H](C=O)CCCN=C(N)N` (stereo partly drawn): the inhibition on Prothrombin [3] came to 39%.

In turn, `CN[C@H](Cc1ccccc1)C(=O)N1CCC[C@H]1C(=O)N[C@H](C=O)CCCN=C(N)N` [EFEGATRAN] registered a half-inhibitory concentration (IC50) against Prothrombin [4] of 0.046 µM.

On to `CNC(Cc1ccc2ccccc2c1)C(=O)N[C@H]1CCCC[C@H]1C(=O)N[C@@H](C=O)CCCN=C(N)N` (stereo partly drawn), for which the Selectivity in assay [1] is above 5000; in assay [2], 4540. This molecule registered an IC50 on Prothrombin [4] of 0.022 µM.

Molecule `CNC(Cc1ccccc1)C(=O)N[C@H]1CCCC[C@H]1C(=O)N[C@@H](C=O)CCCN=C(N)N` (stereo partly drawn) showed an inhibition against Prothrombin [3] of 6%.

With `CN(CCc1ccccc1)C(=O)C1CCCCC1C(=O)N[C@@H](C=O)CCCN=C(N)N` (stereo partly drawn), the inhibition on Prothrombin [3] amounted to 100%. The molecule further showed a half-inhibitory concentration (IC50) at Prothrombin [4] of 84 µM.

Take `CN(Cc1ccccc1)C(=O)C1CCCCC1C(=O)N[C@@H](C=O)CCCN=C(N)N` (stereo partly drawn): the inhibition on Prothrombin [3] turned out to be 36%.

With `CN[C@H](Cc1ccccc1)C(=O)N1CCC[C@H]1C(=O)N[C@H](C=O)CCCNC(=N)N`, the Selectivity in assay [2] was 413.

On Prothrombin [3], `CN(CCc1ccccc1)C(=O)[C@H]1CCCC[C@@H]1C(=O)N[C@@H](C=O)CCCN=C(N)N` displayed an inhibition of 15%.

What is called inhibition is the share of the control response that was lost under treatment. Low readings indicate a weak effect, high ones a strong effect. In general, IC50 refers to the midpoint of a concentration-inhibition curve. A high value points to a need for much substance.
